#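 Test compounds were applied to cells in 96-well plates for 48 hours at 5 doses. GI50 is the concentration that inhibits growth by half. TGI is the concentration that stops growth completely.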
# Experiments:
# Assay in all cases: DTP human tumour cell line panel, 48 h
# [1] = tested on: A498 renal
# [2] = tested on: A549 NSCLC
# [3] = tested on: ACHN renal
# [4] = tested on: BT-549 breast
# [5] = tested on: CAKI-1 renal
# [6] = tested on: CCRF-CEM leukemia
# [7] = tested on: COLO 205 colon
# [8] = tested on: DU-145 prostate
# [9] = tested on: EKVX NSCLC
# [10] = tested on: HCC-2998 colon
# [11] = tested on: HCT-116 colon
# [12] = tested on: HCT-15 colon
# [13] = tested on: HL-60(TB) leukemia
# [14] = tested on: HOP-62 NSCLC
# [15] = tested on: HOP-92 NSCLC
# [16] = tested on: HS 578T breast
# [17] = tested on: HT29 colon
# [18] = tested on: IGROV1 ovarian
# [19] = tested on: K-562 leukemia
# [20] = tested on: KM12 colon
# [21] = tested on: LOX IMVI melanoma
# [22] = tested on: M14 melanoma
# [23] = tested on: MALME-3M melanoma
# [24] = tested on: MCF7 breast
# [25] = tested on: MDA-MB-231 breast
# [26] = tested on: MDA-MB-435
# [27] = tested on: MOLT-4 leukemia
# [28] = tested on: NCI-H226 lung
# [29] = tested on: NCI-H23 lung
# [30] = tested on: NCI-H460 lung
# [31] = tested on: NCI-H522 lung
# [32] = tested on: NCI/ADR-RES ovarian
# [33] = tested on: OVCAR-3 ovarian
# [34] = tested on: OVCAR-4 ovarian
# [35] = tested on: OVCAR-5 ovarian
# [36] = tested on: OVCAR-8 ovarian
# [37] = tested on: PC-3 prostate
# [38] = tested on: RPMI-8226 leukemia
# [39] = tested on: RXF 393 renal
# [40] = tested on: SF-268 CNS
# [41] = tested on: SF-295 CNS
# [42] = tested on: SF-539 CNS
# [43] = tested on: SK-MEL-2 melanoma
# [44] = tested on: SK-MEL-28 melanoma
# [45] = tested on: SK-MEL-5 melanoma
# [46] = tested on: SK-OV-3 ovarian
# [47] = tested on: SN12C renal
# [48] = tested on: SNB-19 CNS
# [49] = tested on: SNB-75 CNS
# [50] = tested on: SR leukemia
# [51] = tested on: SW-620 colon
# [52] = tested on: T-47D breast
# [53] = tested on: TK-10 renal
# [54] = tested on: U251 CNS
# [55] = tested on: UACC-257 melanoma
# [56] = tested on: UACC-62 melanoma
# [57] = tested on: UO-31 renal
# [58] = tested on: 786-0 renal
smiles,measurement,setting,value
O=C1/C(=C/c2ccccc2[N+](=O)[O-])Oc2ccc(O)cc21,GI50,[1],2 µM
same,TGI,[1],16.9 µM
same,GI50,[2],4.83 µM
same,TGI,[2],26 µM
same,GI50,[3],2.42 µM
same,TGI,[3],8.98 µM
same,GI50,[4],3.16 µM
same,TGI,[4],12.5 µM
same,GI50,[5],1.62 µM
same,TGI,[5],3.83 µM
same,GI50,[6],2.81 µM
same,TGI,[6],> 100 µM
same,GI50,[7],2.19 µM
same,TGI,[7],5.88 µM
same,GI50,[8],2.26 µM
same,TGI,[8],5.38 µM
same,GI50,[9],3.77 µM
same,TGI,[9],14.8 µM
same,GI50,[10],2.74 µM
same,TGI,[10],7.94 µM
same,GI50,[11],1.75 µM
same,TGI,[11],4.17 µM
same,GI50,[12],1.85 µM
same,TGI,[12],5.47 µM
same,GI50,[13],2.99 µM
same,TGI,[13],9.91 µM
same,GI50,[14],7 µM
same,TGI,[14],38.9 µM
same,GI50,[15],2.24 µM
same,TGI,[15],9.33 µM
same,GI50,[16],1.9 µM
same,TGI,[16],6.35 µM
same,GI50,[17],2.83 µM
same,TGI,[17],11.3 µM
same,GI50,[18],1.62 µM
same,TGI,[18],6.18 µM
same,GI50,[19],2.84 µM
same,TGI,[19],> 100 µM
same,GI50,[20],4.38 µM
same,TGI,[20],16.4 µM
same,GI50,[21],1.61 µM
same,TGI,[21],3.36 µM
same,GI50,[22],2.02 µM
same,TGI,[22],4.99 µM
same,GI50,[23],2.08 µM
same,TGI,[23],5.85 µM
same,GI50,[24],1.73 µM
same,TGI,[24],5.52 µM
same,GI50,[25],2.6 µM
same,TGI,[25],9.46 µM
same,GI50,[26],2.66 µM
same,TGI,[26],7.52 µM
same,GI50,[27],3.29 µM
same,TGI,[27],> 100 µM
same,GI50,[28],1.73 µM
same,TGI,[28],4.77 µM
same,GI50,[29],2.1 µM
same,TGI,[29],5.17 µM
same,GI50,[30],3.09 µM
same,TGI,[30],10.1 µM
same,GI50,[31],2.08 µM
same,TGI,[31],4.83 µM
same,GI50,[32],2.47 µM
same,TGI,[32],7.36 µM
same,GI50,[33],1.9 µM
same,TGI,[33],3.88 µM
same,GI50,[34],2.58 µM
same,TGI,[34],9.58 µM
same,GI50,[35],2.21 µM
same,TGI,[35],5.72 µM
same,GI50,[36],2.86 µM
same,TGI,[36],> 100 µM
same,GI50,[37],3.08 µM
same,TGI,[37],14.2 µM
same,GI50,[38],2.4 µM
same,TGI,[38],7.56 µM
same,GI50,[39],1.8 µM
same,TGI,[39],3.61 µM
same,GI50,[40],6.32 µM
same,TGI,[40],35.9 µM
same,GI50,[41],4.11 µM
same,TGI,[41],15.4 µM
same,GI50,[42],2.16 µM
same,TGI,[42],5.61 µM
same,GI50,[43],3.23 µM
same,TGI,[43],15.1 µM
same,GI50,[44],2.37 µM
same,TGI,[44],6.08 µM
same,GI50,[45],8.89 µM
same,TGI,[45],22 µM
same,GI50,[46],15.3 µM
same,TGI,[46],62.1 µM
same,GI50,[47],2.52 µM
same,TGI,[47],7.68 µM
same,GI50,[48],5.24 µM
same,TGI,[48],19 µM
same,GI50,[49],1.44 µM
same,TGI,[49],42.4 µM
same,GI50,[50],2.69 µM
same,TGI,[50],> 100 µM
same,GI50,[51],1.66 µM
same,TGI,[51],4.12 µM
same,GI50,[52],2.84 µM
same,TGI,[52],19.4 µM
same,GI50,[53],3.2 µM
same,TGI,[53],7.7 µM
same,GI50,[54],2.77 µM
same,TGI,[54],11.1 µM
same,GI50,[55],4.33 µM
same,TGI,[55],38.3 µM
same,GI50,[56],2.26 µM
same,TGI,[56],6.2 µM
same,GI50,[57],1.95 µM
same,TGI,[57],6.86 µM
Fc1ccc(-c2cc3nc(C(Cl)Cl)nc(-c4cccs4)n3n2)cc1,GI50,[58],2.31 µM
same,TGI,[58],7.33 µM
same,GI50,[1],1.02 µM
same,TGI,[1],2.36 µM
same,GI50,[2],0.745 µM
same,TGI,[2],4.92 µM
same,GI50,[3],0.301 µM
same,TGI,[3],1.21 µM
same,GI50,[4],> 100 µM
same,TGI,[4],> 100 µM
same,GI50,[5],1.22 µM
same,TGI,[5],5.04 µM
same,GI50,[6],19.6 µM
same,TGI,[6],> 100 µM
same,GI50,[7],0.805 µM
same,TGI,[7],3.12 µM
same,GI50,[8],0.31 µM
same,TGI,[8],0.888 µM
same,GI50,[9],1.12 µM
same,TGI,[9],4.07 µM
same,GI50,[10],0.41 µM
same,TGI,[10],1.59 µM
same,GI50,[11],1.53 µM
same,TGI,[11],> 100 µM
same,GI50,[12],1.1 µM
same,TGI,[12],3.71 µM
same,GI50,[13],0.29 µM
same,TGI,[13],2.23 µM
same,GI50,[14],0.454 µM
same,TGI,[14],3.46 µM
same,GI50,[15],0.537 µM
same,TGI,[15],2.96 µM
same,GI50,[16],1.95 µM
same,TGI,[16],7.03 µM
same,GI50,[17],0.356 µM
same,TGI,[17],2.05 µM
same,GI50,[18],3.07 µM
same,TGI,[18],> 100 µM
same,GI50,[19],2.53 µM
same,TGI,[19],> 100 µM
same,GI50,[20],2.2 µM
same,TGI,[20],17.5 µM
same,GI50,[22],4.5 µM
same,TGI,[22],> 100 µM
same,GI50,[23],7.5 µM
same,TGI,[23],> 100 µM
same,GI50,[24],0.369 µM
same,TGI,[24],4.31 µM
same,GI50,[25],0.505 µM
same,TGI,[25],3.1 µM
same,GI50,[26],1.63 µM
same,TGI,[26],3.45 µM
same,GI50,[27],3.56 µM
same,TGI,[27],> 100 µM
same,GI50,[28],> 100 µM
same,TGI,[28],> 100 µM
same,GI50,[29],1.47 µM
same,TGI,[29],4 µM
same,GI50,[30],0.309 µM
same,TGI,[30],1.19 µM
same,GI50,[31],> 100 µM
same,TGI,[31],> 100 µM
same,GI50,[32],1.17 µM
same,TGI,[32],5.66 µM
same,GI50,[34],2.39 µM
same,TGI,[34],6.22 µM
same,GI50,[35],1.75 µM
same,TGI,[35],5.31 µM
same,GI50,[36],1.21 µM
same,TGI,[36],> 100 µM
same,GI50,[37],1.19 µM
same,TGI,[37],4.67 µM
same,GI50,[38],0.847 µM
same,TGI,[38],5.79 µM
same,GI50,[39],0.403 µM
same,TGI,[39],1.71 µM
same,GI50,[40],1.61 µM
same,TGI,[40],7.99 µM
same,GI50,[41],0.949 µM
same,TGI,[41],4.79 µM
same,GI50,[42],1.05 µM
same,TGI,[42],2.89 µM
same,GI50,[43],3.1 µM
same,TGI,[43],9.66 µM
same,GI50,[44],1.86 µM
same,TGI,[44],3.59 µM
same,GI50,[45],> 100 µM
same,TGI,[45],> 100 µM
same,GI50,[46],2.21 µM
same,TGI,[46],13.8 µM
same,GI50,[47],36.1 µM
same,TGI,[47],> 100 µM
same,GI50,[48],0.664 µM
same,TGI,[48],4.4 µM
same,GI50,[49],0.284 µM
same,TGI,[49],2.81 µM
same,GI50,[50],3.7 µM
same,TGI,[50],> 100 µM
same,GI50,[51],1.18 µM
same,TGI,[51],8.61 µM
same,GI50,[52],1.6 µM
same,TGI,[52],7.24 µM
same,GI50,[53],3.14 µM
same,TGI,[53],6.88 µM
same,GI50,[54],0.319 µM
same,TGI,[54],1.98 µM
same,GI50,[55],3.04 µM
same,TGI,[55],9.15 µM
same,GI50,[56],2.71 µM
same,TGI,[56],15 µM
same,GI50,[57],1.26 µM
same,TGI,[57],5.5 µM
